# Results reported in US20260317250A1, “TRIAZOLE METHANOL AS NITRIFICATION INHIBITOR FOR FERTILIZER APPLICATION” (SABIC AGRI-NUTRIENTS COMPANY, priority 2022, published 2026).
# Tested on: nitrification of the ammonia nitrogen (NH4—N) in the sludge
# Assay: Nitrification batch test in crop soil/water sludge under nitrifying conditions
# Conditions: for inhibition of nitrification of ammonia nitrogen (NH4—N) in the sludge: Tables 3 and 4, in words; for nitrification process: first 8 hours; for NH4—N Conversion Rate During First 24 Hours: dosed NH4—N 50 mg/l; for NH4—N Conversion Rate During First 24 Hours / COD / NH4—N concentration / NO3—N concentration: DCD 5.8 mg/l
# Experimental: Crop soil and water were combined to form a sludge. The freshly-acquired sludge contained a high amount of nitrate nitrogen, therefore, the sludge was pretreated to reduce the chance of denitrification during analysis. Ethylene glycol was added to the sludge and the resulting sludge was purged with nitrogen gas for 24 hours to eliminate the nitrate nitrogen. After 24 hours, the sludge was aerated to eliminate the residual chemical oxygen demand (COD) which could be present. COD refers to the amount of oxygen required to degrade all oxidizable compounds in a measured sample.
# A nitrification batch test was performed under nitrifying conditions. The activity of nitrification inhibitor Formula II compound was compared to that of the nitrification inhibitor dicyandiamide (DCD). COD and NH4—N were added to the sludge with one of the Formula II compound or DCD. COD, NH4—N, and NO3—N concentrations were monitored over time (t=0, 2, 4, 6, 8, 24 and 29 hours). The COD and NH4—N removal was calculated from the analysis results. Glycol was included as a reference in the test.
# The pH and oxygen content were also monitored during the tests. The pH level was kept between 7 and 8 at the beginning of the tests by adding 1N HCl or 1N NaOH. Oxygen was constantly purged into the sludge solutions throughout the test to get maximum aeration.
# Table 2 includes the concentrations assessed for the five batch tests. A sample concentration of approximately 10% compared to the NH4—N concentration was employed.
# Values shown in brackets are below the quantification limit and are indicative. Measurements taken at time=0 were taken 60 seconds after mixing the sludge with the indicated substance. The nitrification process was nominal for both DCD and Formula II compound during the first 8 hours, then nitrification rates increased. The NH4—N and NO3—N concentrations were tested at 29 hours to verify that the nitrification process was still ongoing.
# [1] = first 24 hours, Formula II compound 7.6 mg/l
# [2] = time 0 h (60 seconds after mixing), dosed COD 800 mg O2/l, NH4—N 50 mg/l, Formula II compound 7.6 mg/l
# [3] = time 2 h, dosed COD 800 mg O2/l, NH4—N 50 mg/l, Formula II compound 7.6 mg/l
# [4] = time 4 h, dosed COD 800 mg O2/l, NH4—N 50 mg/l, Formula II compound 7.6 mg/l
# [5] = time 6 h, dosed COD 800 mg O2/l, NH4—N 50 mg/l, Formula II compound 7.6 mg/l
# [6] = time 8 h, dosed COD 800 mg O2/l, NH4—N 50 mg/l, Formula II compound 7.6 mg/l
# [7] = time 24 h, dosed COD 800 mg O2/l, NH4—N 50 mg/l, Formula II compound 7.6 mg/l
# [8] = time 29 h, dosed COD 800 mg O2/l, NH4—N 50 mg/l, Formula II compound 7.6 mg/l
SMILES,inhibition of nitrification of ammonia nitrogen (NH4—N) in the sludge,nitrification process (in words),NH4—N Conversion Rate During First 24 Hours [1] [mg NH4—N/l · h],COD [2] [mg O2/l],NH4—N concentration [2] [mg/L],NO3—N concentration [2] [mg/L],COD [3] [mg O2/l],NH4—N concentration [3] [mg/L],NO3—N concentration [3] [mg/L],COD [4] [mg O2/l],NH4—N concentration [4] [mg/L],NO3—N concentration [4] [mg/L],COD [5] [mg O2/l],NH4—N concentration [5] [mg/L],NO3—N concentration [5] [mg/L],COD [6] [mg O2/l],NH4—N concentration [6] [mg/L],NO3—N concentration [6] [mg/L],COD [7] [mg O2/l],NH4—N concentration [7] [mg/L],further results
"N#CNC(=N)N [DCD, dicyandiamide, reference compound]",effective at inhibiting the nitrification of the ammonia nitrogen (NH4—N) in the sludge,nominal,1.5,757,45.9,8.6,558,43.0,5.5,360,39.4,8.9,190,39.7,7.4,121,33.2,7.3,48,9.9,NO3—N concentration [7]: 39.0 mg/L; NH4—N concentration [8]: 4.0 mg/L; NO3—N concentration [8]: 47.2 mg/L
"OCn1cncn1 [Formula II compound, (1H-1,2,4-triazole-1-yl)-methanol]",effective at inhibiting the nitrification of the ammonia nitrogen (NH4—N) in the sludge,nominal,0.9,718,45.2,8.8,497,41.6,13.8,314,40.3,11.8,204,42.0,7.2,158,37.9,< 2.3,60,23.8,"effectiveness at inhibiting nitrification compared with DCD (first 24 hours, in words): more effective at inhibiting nitrification during the first 24 hours; NO3—N concentration, indicative value in brackets (below the quantification limit) [6]: 1.5 mg/L; NO3—N concentration [7]: 16.2 mg/L; NH4—N concentration [8]: 22.9 mg/L; NO3—N concentration [8]: 20.4 mg/L"
